Reference: PubChem BioAssay (NCI)
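All cell lines were grown in 96-well plates and treated with compound for 48 hours. TGI: total growth inhibition.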

Assays:
Assay in all cases: NCI anticancer screen, dose series, 48 h
[1] = system: 786-0 renal
[2] = system: A498 renal
[3] = system: A549 NSCLC
[4] = system: ACHN renal
[5] = system: BT-549 breast
[6] = system: CAKI-1 renal
[7] = system: CCRF-CEM leukemia
[8] = system: COLO 205 colon
[9] = system: DU-145 prostate
[10] = system: EKVX NSCLC
[11] = system: HCT-116 colon
[12] = system: HCT-15 colon
[13] = system: HL-60(TB) leukemia
[14] = system: HOP-62 NSCLC
[15] = system: HOP-92 NSCLC
[16] = system: HS 578T breast
[17] = system: HT29 colon
[18] = system: IGROV1 ovarian
[19] = system: K-562 leukemia
[20] = system: KM12 colon
[21] = system: LOX IMVI melanoma
[22] = system: M14 melanoma
[23] = system: MALME-3M melanoma
[24] = system: MCF7 breast
[25] = system: MDA-MB-231 breast
[26] = system: MDA-MB-435
[27] = system: MDA-N
[28] = system: MOLT-4 leukemia
[29] = system: NCI-H226 lung
[30] = system: NCI-H23 lung
[31] = system: NCI-H460 lung
[32] = system: NCI-H522 lung
[33] = system: NCI/ADR-RES ovarian
[34] = system: OVCAR-3 ovarian
[35] = system: OVCAR-4 ovarian
[36] = system: OVCAR-5 ovarian
[37] = system: OVCAR-8 ovarian
[38] = system: PC-3 prostate
[39] = system: RPMI-8226 leukemia
[40] = system: RXF 393 renal
[41] = system: SF-268 CNS
[42] = system: SF-295 CNS
[43] = system: SF-539 CNS
[44] = system: SK-MEL-2 melanoma
[45] = system: SK-MEL-28 melanoma
[46] = system: SK-MEL-5 melanoma
[47] = system: SK-OV-3 ovarian
[48] = system: SN12C renal
[49] = system: SNB-19 CNS
[50] = system: SNB-75 CNS
[51] = system: SR leukemia
[52] = system: SW-620 colon
[53] = system: T-47D breast
[54] = system: TK-10 renal
[55] = system: U251 CNS
[56] = system: UACC-257 melanoma
[57] = system: UACC-62 melanoma
[58] = system: UO-31 renal

Measured: TGI

NC(=O)NOCC1NC(=O)NC1=O (stereo not drawn)
> 100 µM: all assays above
